The values that follow are results of earlier work, collected in patent US20090123919A1, “Diagnosing Pathological Conditions Using Interallelic Epigenetic Variations” (Allelis Diagnostics Ltd., priority 2005, published 2009).

SMILES strings stand for the structures.

The test system of the series is aneuploid genotypes. The note with it: in the presence of 5-azacytidine, an inhibitor of DNA methylation.

Regarding `Nc1ncn([C@@H]2O[C@H](CO)[C@@H](O)[C@H]2O)c(=O)n1` [5-azacytidine], the “loss of the inherent temporal order of allelic replication” value is “can be reversed”.
